Consider three compounds from article PMC8270334, “Design, Sustainable Synthesis and Biological Evaluation of a Novel Dual α2A/5-HT7 Receptor Antagonist with Antidepressant-Like Properties” (Molecules, 2021).

For one series, the target named is T1, 5-HT7R (Homo sapiens, UniProt P34969).
T1 construct: expressed in transfected cells; host or cells: HEK-293 (prepared with Lipofectamine 2000, G418 selection)
Description: intrinsic activity at 5-HT7R, LANCE cAMP assay in HEK-293 cells, 5-CT stimulated. The following applies: read-out: 5-HT7 Kb. The format is cell-based. As to the method: Cells (prepared with the use of Lipofectamine 2000) were maintained at 37 °C in a humidified atmosphere with 5% CO2 and grown in Dulbeco’s Modifier Eagle Medium containing 10% dialyzed fetal bovine serum and […] G418 sulphate. For functional experiments, cells were subcultured in 25 cm diameter dishes, grown to 90% confluence, washed twice with pre-warmed to 37 °C phosphate buffered saline (PBS) and were centrifuged for 5 min (160× g). The supernatant was aspirated, then the cell pellet was resuspended in stimulation buffer (1 × HBSS, 5 mM HEPES, 0.5 mM IBMX, 0.1% BSA). The cAMP level was measured using the LANCE cAMP detection kit (PerkinElmer), according to the manufacturer’s directions. […] Cells (5 µL) were incubated with compounds (5 µL) for 30 min at room temperature in 384-well white opaque microtiter plate. After incubation, the reaction was stopped, and cells were lysed by the addition of 10 µL working solution (5 µL Eu-cAMP and 5 µL ULight-anti-cAMP). The assay plate was incubated for 1 h at room temperature. Time-resolved fluorescence resonance energy transfer (TR-FRET) was detected by an Infinite M1000 Pro (Tecan) using instrument settings from LANCE cAMP detection kit manual. Kb values were calculated from the Cheng–Prusoff equation specific for the analysis of functional inhibition curves: Kb = IC50/(1+A/EC50) where A is the agonist concentration, IC50 is the concentration of the antagonist producing a 50% reduction in the response to the agonist, and EC50 is the agonist concentration which causes half of the maximal response.

For a further series, the target named is T2, human D2L receptor (Homo sapiens, UniProt P14416).
T2 construct: expressed in transfected cells; host or cells: HEK293
As to the kind of experiment: radioligand binding, [3H]-raclopride displacement at D2LR in HEK293 cells. Conditions: HEK-293 cells, ± SEM; read-out: Ki [nM] D2. How it is done:
All experiments were performed using HEK293 cells stably expressing human 5-HT1A, 5-HT6, 5-HT7b, and D2L receptors or CHO-K1 cells with a plasmid containing the human 5-HT2A receptor coding sequence (PerkinElmer, Waltham, MA, USA), according to previously reported procedures. Cells were cultured in 150 cm^2 flasks and, after reaching a 90% confluence, were washed with PBS and the centrifugated (200 g) in PBS containing 0.1 mM EDTA and 1 mM dithiothreitol. Cell pellets were subsequently homogenized (in Ultra Turrax tissue homogenizer) and centrifugated twice (35,000× g for 15 min at 4 °C), with 15 min incubation at 37 °C between the centrifugations. All assays were incubated in dedicated buffers and in a total volume of 200 µL in 96-well microtitre plates for 1 h at 37 °C, except for 5-HT1AR and 5-HT2AR that was incubated for 1 h at room temperature. The process of equilibration is terminated by rapid filtration through Unifilter-96 (PerkinElmer) plates with a 96-well cell harvester and radioactivity retained on the filters was quantified on a Microbeta plate reader (PerkinElmer, USA). For displacement studies, the following assay samples containing the proper radioligand were used: 2.5 nM [^3H]-8-OH-DPAT (PerkinElmer, #NET929001MC) for 5-HT1AR; 1 nM [^3H]-ketanserin (PerkinElmer, #NET791250UC) for 5-HT2AR; 2 nM [^3H]-LSD (PerkinElmer, #NET638250UC) for 5-HT6R; and 0.8 nM [^3H]-5-CT (PerkinElmer, #NET1188U100UC) for 5-HT7R or 2.5 nM [^3H]-raclopride (PerkinElmer, #NET975001MC) for D2LR. Non-specific binding was determined using 10 μM 5-HT for 5-HT1AR and 5-HT7R, 20 μM mianserin for 5-HT2AR, 10 μM methiothepine for 5-HT6R, and 10 μM haloperidol for D2LR. […] Results were expressed as means of at least three separate experiments.

The test system of the next series is Albino Swiss mice. As to the kind of experiment: spontaneous locomotor activity. The format is in vivo. The following applies: ip. How it is done:
Adult male Albino Swiss mice (CD-1, 8 weeks old, 25–30 g: Jagiellonian University Medical College, Krakow, Poland) were used in the study. Animals were housed in groups of 8 in a transparent plastic cage (382 × 220 × 150 mm) at room temperature (22 ± 2 °C), on a 12 h light/dark cycle with ad libitum access to food and water. Mice were handled for one week before starting the experimental procedures. The separate groups of animals were used in the forced swim test and in the locomotor studies. All studies were approved by the Institutional Animal Care and Ethics Committee of the Jagiellonian University (approval no.: 80/2015).
Tested compounds were dissolved with 1% Tween 80. […] The control animals were given ip injections of the 2% DMSO in 1% Tween 80 (vehicle). The volume of vehicle or drug solutions was 10 mL/kg.
Locomotor activity was recorded with an Opto M3 multichannel activity monitor, photoresistor actometers connected to a counter for the recording of light-beam interruptions (MultiDevice Software v1.3, Columbus Instruments, Columbus, OH, USA). The mice, after being placed into the cages individually, had their activity evaluated between the 2nd and the 6th minute. The chosen time period corresponded with the time interval considered in the FST. Spontaneous locomotor activity was evaluated as the distance travelled plus the movements of climbing by animals.

The next series concerns the target α1-AR. As to the kind of experiment: radioligand binding, displacement of [3H]prazosin from α1-adrenoreceptors. The following applies: rat cerebral cortex, ± SEM. As to the method: The brains were homogenized in 20 volumes of ice-cold 50 mM Tris–HCl buffer (pH 7.6) and centrifuged at 20,000 × g for 20 min (0–4 °C). The cell pellet was resuspended in the Tris–HCl buffer and centrifuged again. Radioligand binding assays were performed in plates (MultiScreen/Millipore). […] The incubation was terminated by rapid filtration over glass fibre filters (Whatman GF/C) using a vacuum manifold (Millipore). The filters were then washed twice with the assay buffer and placed in scintillation vials with a liquid scintillation cocktail. Radioactivity was measured in a WALLAC 1409 DSA liquid scintillation counter. All assays were made in duplicate.

Setting [1] is: doses effective in the FST (6: 4, 8 mg/kg; mirtazapine: 16 mg/kg).

T2 sequence (P14416 whole entry): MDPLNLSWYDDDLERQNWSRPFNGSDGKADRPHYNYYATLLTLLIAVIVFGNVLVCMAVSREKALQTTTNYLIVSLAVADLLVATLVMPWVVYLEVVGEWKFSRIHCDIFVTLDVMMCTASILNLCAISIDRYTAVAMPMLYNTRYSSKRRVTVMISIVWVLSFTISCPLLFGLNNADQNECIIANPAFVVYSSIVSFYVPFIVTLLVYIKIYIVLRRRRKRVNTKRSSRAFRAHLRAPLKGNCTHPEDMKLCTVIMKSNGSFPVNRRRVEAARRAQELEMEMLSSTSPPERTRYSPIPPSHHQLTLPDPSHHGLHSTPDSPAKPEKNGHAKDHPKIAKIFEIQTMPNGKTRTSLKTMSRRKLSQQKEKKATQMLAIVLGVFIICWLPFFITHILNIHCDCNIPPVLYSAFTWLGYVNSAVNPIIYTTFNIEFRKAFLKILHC
T1 sequence (P34969 1-432): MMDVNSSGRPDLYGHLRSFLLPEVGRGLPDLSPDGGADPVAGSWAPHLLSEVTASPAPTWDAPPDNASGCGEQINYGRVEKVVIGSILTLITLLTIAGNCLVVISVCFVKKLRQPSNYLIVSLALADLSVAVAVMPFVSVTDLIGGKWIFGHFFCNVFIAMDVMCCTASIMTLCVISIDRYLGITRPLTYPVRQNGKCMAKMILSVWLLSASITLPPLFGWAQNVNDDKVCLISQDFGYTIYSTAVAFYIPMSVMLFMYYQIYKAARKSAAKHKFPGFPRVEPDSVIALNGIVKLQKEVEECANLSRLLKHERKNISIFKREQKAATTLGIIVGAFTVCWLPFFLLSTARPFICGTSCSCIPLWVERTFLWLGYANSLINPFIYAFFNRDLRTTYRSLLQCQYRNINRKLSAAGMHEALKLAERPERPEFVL

For `CC1(C)Cc2cccc(OCCN3CCC(NS(=O)(=O)c4ccc(F)cc4)CC3)c2O1` [Compound 6, 4-Fluoro-N-{1-[2-(2,2-dimethyl-2,3-dihydrobenzofuran-7-yloxy)ethyl]piperidin-4-yl} benzenesulfonamide], the Kb on 5-HT7R amounted to 186 ± 37 nM. Moreover, the Ki on human D2L receptor stood at 327 ± 29 nM; on α1-AR, 761 ± 86 nM. In addition, the “influence on spontaneous locomotor activity (sedation)” value in the series with Albino Swiss mice (setting [1]) is on record as “induced sedation”.
The like results for `CC1(C)Cc2cccc(OCCN3CCC(NS(=O)(=O)c4cc(Cl)ccc4F)CC3)c2O1` [Compound 8, 5-Chloro-2-fluoro-N-{1-[2-(2,2-dimethyl-2,3-dihydrobenzofuran-7-yloxy)ethyl]piperidin-4-yl}benzenesulfonamide] were, in that order, 141 ± 43 nM, 388 ± 37 nM, 1260 ± 101 nM and “no influence on the spontaneous locomotor activity”.
Regarding `CC1(C)Cc2cccc(OCCN3CCC(NS(=O)(=O)c4cncc5ccccc45)CC3)c2O1` [Compound 13, 4-Isoquinoline-N-{1-[2-(2,2-dimethyl-2,3-dihydrobenzofuran-7-yloxy)ethyl]piperidin-4-yl}sulfonamide], the Kb on 5-HT7R is 155 ± 30 nM. Also, the Ki worked out at 326 ± 25 nM at human D2L receptor and 429 ± 66 nM at α1-AR. For the same compound, the “influence on spontaneous locomotor activity (sedation)” value was “without affecting locomotor activity” in the series with Albino Swiss mice (1 mg/kg) and “caused sedation” in the series with Albino Swiss mice (higher doses (above 1 mg/kg)).

One may read the Ki as the equilibrium dissociation constant of an inhibitor or competing ligand from its target.
